{
  "source": "patent US20040157798A1",
  "about": "“Drug for use in bone grafting” (priority 2001, published 2004)",
  "tested_on": "10 mm tibial defect model in rabbits",
  "assay": "10 mm tibial defect model in rabbits with calcium sulphate (Osteoset) cylinder; pQCT scans and radiographs",
  "format": "in vivo, NZW rabbit",
  "conditions": "for BMC / BMD / Polar Moment / Total Bone Area: 6 weeks; for Total Bone Area: CT slice at centre of defect",
  "from_the_text": "The following example outlines the process by which the effects of bisphosphonates on potentiating new bone formation in a graft may be observed. In this regard, the effects on bone mineralisation and the mechanical properties are observed in a 10 mm tibial defect model in rabbits.\nThe present experiment uses an 8-week-old NZW rabbit model. A 10 mm gap is surgically removed from the tibiae of the rabbits. The bones are held with a M-100 external fixator.\nCylinders of calcium sulphate (Osteoset) were prepared on the day of surgery. Moulds were prepared using a combination of 1.0 ml and 3.0 ml syringes, and the Osteoset poured into the moulds in a sterile environment. The cylinders were removed from the moulds at 12 minutes, and allowed to dry in air for 90 minutes, followed by final drying in a microwave for 30 seconds. Once dry, the cylinders were formed into a standard dimension of 10 mm length, with an external diameter of 9 mm and with a 3 mm diameter internal core. The cylinders weighed 0.80.9 g. The cylinders were stored in sterile environment until required.\nAt the commencement of the operative procedure 0.15 ml of saline, or 0.15 ml of zoledronic acid (0.05 mg/kg) was adsorbed onto a calcium sulphate cylinder, which was then replaced into the sterile container.\nThe operative field was prepared by shaving with clippers, disinfected with povidone iodine 4% w/v in 70% alcohol. The right tibia was exposed sub-periosteally along its length and four 3 mm Orthofix pins inserted. An M-100 monolateral external fixator (Orthofix S.L.R) was applied. A 10 mm piece of mid-diaphyseal tibia was removed using an oscillating saw, along with the central 10 mm of periosteum. A calcium sulphate cylinder was then placed in the defect, and held by slight compression of the external fixator.\nThe animals were randomised such that at the time of surgery, 24 animals had Osteoset cylinders with saline adsorbed inserted, 12 of whom were given saline-only infusions and 12 of whom were given 0.1 mg/kg zoledronic acid infusion at the time of surgery and again on day 14. A further 12 animals had Osteoset cylinders with 0.15 ml of zoledronic acid (0.05 mg/kg) adsorbed inserted, and given a saline only infusion. Note that in the third leg the zoledronic acid was administered to the site via the cylinder, and not directly.\nAnimals were culled at 28 days (18 animals) and at 42 days (18 animals) with IV pentobarbitone 150 mg/kg.\n[…]. CT scans were performed at 28 days (18 animals) and at 42 days (18 animals) using a Stratec XCT Research SA pQCT scanner.",
  "key": {"[1]": {"conditions": "IV ZA 0.1 mg/kg at surgery and day 14"}, "[2]": {"conditions": "Local ZA 0.05 mg/kg adsorbed on cylinder"}},
  "data": [
    {"smiles": "O=P(O)(O)C(O)(Cn1ccnc1)P(=O)(O)O", "note": "[ZA, 1-hydroxy-2-[(1H-imidazol-1-yl)ethylidine]bisphosphonic acid]", "values": [
      {"measurement": "Bone area increase over controls", "setting": "4 weeks, IV ZA group", "value": 131, "unit": "%"},
      {"measurement": "Polar moment of inertia increase over controls", "setting": "4 weeks, IV ZA group", "value": 104, "unit": "%"},
      {"measurement": "Bone area increase over controls", "setting": "4 weeks, Local ZA group", "value": 216, "unit": "%"},
      {"measurement": "Polar moment of inertia increase over controls", "setting": "4 weeks, Local ZA group", "value": 316, "unit": "%"},
      {"measurement": "BMC", "setting": "[1]", "value": "45.9 (20.7) mg/mm"},
      {"measurement": "BMD", "setting": "[1]", "value": "784.6 (97.7) mg/cm^3"},
      {"measurement": "Polar Moment", "setting": "[1]", "value": "442.8 (585.2) mm^4"},
      {"measurement": "Total Bone Area", "setting": "IV ZA 0.1 mg/kg infusion at surgery and day 14", "value": "58.0 (23.2) mm^2"},
      {"measurement": "Total Bone Area", "setting": "Local ZA 0.05 mg/kg adsorbed on calcium sulphate cylinder", "value": "66.6 (7.9) mm^2"},
      {"measurement": "BMC", "setting": "[2]", "value": "45.0 (5.4) mg/mm"},
      {"measurement": "BMD", "setting": "[2]", "value": "676.2 (49.3) mg/cm^3"},
      {"measurement": "Polar Moment", "setting": "[2]", "value": "1343.1 (254.7) mm^4"},
      {"measurement": "Polar moment of inertia increase over controls", "setting": "six weeks, Local ZA group", "value": 40, "unit": "%"},
      {"measurement": "Cross sectional area increase over controls", "setting": "six weeks, local bisphosphonate group, not significant", "value": 20, "unit": "%"}
    ]}
  ]
}
